± gives the expanded uncertainty stated by the source.
Details: Liquid; for Critical pressure: pulse heating; for Critical temperature: pulse-heating method

| Structure (SMILES) | Critical pressure | Critical temperature |
| --- | --- | --- |
| Oc1ccccc1 [phenol] | 5670 ± 340 kPa | 695 ± 14 K |
| OCCc1ccccc1 [2-phenylethanol] | 3850 ± 240 kPa | 720 ± 14 K |
| OCCCCc1ccccc1 [4-phenyl-1-butanol] | 3070 ± 180 kPa | 746 ± 14 K |
| OCCCc1ccccc1 [3-phenyl-1-propanol] | 3460 ± 200 kPa | 732 ± 14 K |
